According to paper PMC12388506, “Preclinical Evaluation of 2-Aminobenzothiazole Derivatives: In Silico, In Vitro, and Preliminary In Vivo Studies as Diabetic Treatments and Their Complications” (Molecules, 2025):
Entries after “also recorded” stand apart in the source; their conditions may differ.

Tests used:
[1] = Observed chemical stability of the isolated compound; format: physicochemical; conditions: neutral (acid) form
Method: Compound 5d was obtained according to the general procedure described. It consists of reacting one molar equivalent of compound 2 with the corresponding carboxylate (L-phenylalanine sodium salt) under refluxing ethanol for 24 h. Under these conditions, the reaction proceeds by nucleophilic attack of the amino group on the carbonimidothioate group of compound 2, with the elimination of gaseous thiomethanol to obtain the sodium salt of SMe-isothiourea 5d, with a yield of 40%. […] Therefore, it was used only as an intermediate for the synthesis of its corresponding methyl ester (8d). The corresponding SMe-isothiureacarbozxylate methyl ester 8d was obtained in 56% yield using one molar equivalent of the SMe-isothiurea sodium salt, with 1.2 equivalents of iodomethane in DMF at room temperature for 24 h, following the general procedure described in the literature. […]
In a flask, L-phenylalanine (202 mg, 1.23 mmol) and NaOH (48.8 mg, 1.2 mmol) were placed in 10 mL of EtOH. […] It was kept at the same temperature for 24 h, and the reaction was monitored with TLC (Hex-AcOEt 7:3). […] Compound 5d was obtained as an acid in the form of a pale white crystal with a yield of 40.0% (182.5 mg, 0.5 mmol) and an mp = 92−94 °C; TLC Rf = 0.44 (Hex-AcOEt 7:3); HPLC tr = 10.7 min; ATR-FTIR νmax (cm^−1): 3155.8, 3067.3, 2925, 2855.6; HRMS (ESI+) 372.0840 m/z calculated for C18H18N3O2S2; found 372.0928 [M + H]^+.

[2] = tested on: STZ-HFD-induced T2D Wistar rats; assay: Subchronic evaluation in STZ-HFD-induced T2D model; format: in vivo, rat; parameters: HbA1c: unit not given here
Method: In vivo experiments were conducted in an acute and a subchronic model, where Wistar rats (180–220 g) were used. The study covered a total period of 10 weeks and was carried out under the Mexican Standard, and the “Guide for the Care and Use of Laboratory Animals” of the National Research Council and Health Institutes was followed.
At first, animals were housed in polypropylene cages under conditions of controlled temperature (20–25 °C), relative humidity (36–60%), and light/dark cycles, with water ad libitum. Before starting the experiment, they were given a one-week acclimatization period to adapt to their new habitat. Once finalized, animals were fed an HFD for 3 weeks to generate insulin resistance.
After this period, the animals fasted for 12 h and then were administered intraperitoneally with a single dose of 35 mg/Kg of STZ dissolved in a buffer of 0.1 M citrate, pH 4.5 (prepared on the same day of administration). Once administered, the hypercaloric diet was maintained, and 10% sucrose solution was placed on demand for 2 days.
One week after administration, postprandial blood glucose levels were measured by venipuncture using a glucometer. Those animals that maintained a glucose level between 200 and 400 mg/dL were included in the study.
(§1) Treatments were administered daily as described above, adjusting the dose according to the weight of the individuals. Fasting glucose levels (6 h fast) were monitored every 7 days until the end of treatments at week 10 (Figure 14). Halfway through the last week of treatment, the OGTT was performed, administering a dose of 1.5 g/Kg of glucose orally and subsequently monitoring capillary blood glucose at 0, 15, 30, 60, 90, and 120 min [62]. In addition, a 24-element blood chemistry was measured in a Celercare V automated dry chemistry analyzer (Tianjin MNCHIP Technologies Co., Ltd., Tianjin, China) at the beginning and end of the model. For this purpose, the blood samples were obtained from the tail of the rat.
(§2) At the end of the study, animals fasted for 12 h and were taken to a humane endpoint, where blood samples were obtained. These were kept at room temperature for 30 min and then centrifuged at 4000 RPM for 15 min at 4 °C. Finally, the serum was used to perform 24-element blood chemistry and quantify Trolox-equivalent TAC [86], TNF-α [87], and IL-6 levels using commercial kits from Merck (Darmstadt, Germany), Sigma-Aldrich (St. Louis, MO, USA), Cat. No. MAK334-1KT, RAB0479-1KT, and RAB0311-1KT, respectively. In addition, insulin was quantified using the Rat Ins1/Insulin ELISA Kit, from Sigma-Aldrich, No. Cat. RAB0904-1KT [89] to determine the HOMA-IR index. All kits were performed according to the manufacturer’s instructions without modifications.

[3] = tested on: STZ-HFD-induced T2D Wistar rats; assay: 24-element blood chemistry in STZ-HFD-induced T2D model; format: in vivo, rat; parameters: GGT / TBA / AMY / TG / T-CHOL / GLU: unit not given here; conditions: for ALP / ALT / AST / CK: in U/L (unit assumed); for ALB / GLO / TP: in g/dL (unit assumed); for BUN / CRE / Ca / Mg / P / TBIL / UREA: in mg/dL (unit assumed); for tCO2: in mmol/L (unit assumed); for TP: mean ± SEM, n = 4
Method: as §1, §2

[4] = tested on: STZ-HFD-induced T2D Wistar rats; assay: Ex vivo serum total antioxidant capacity (Trolox equivalent); format: in vivo, rat
Method: as §2

[5] = tested on: IL-6; assay: Ex vivo serum IL-6 quantification; format: in vivo, rat
Method: as §2

[6] = tested on: TNF-α; assay: Ex vivo serum TNF-α quantification; format: in vivo, rat
Method: as §2

[7] = after the induction of T2D, before treatment
[8] = Table S11, After 5 weeks of treatment
[9] = serum, end of treatment, mean ± SEM, n = 4

CS/C(=N/c1nc2ccccc2s1)N[C@@H](Cc1ccccc1)C(=O)O [5d, (E)-((benzo[d]thiazol-2-ylimino)(methylthio)methyl)-L-phenylalanine]
chemical stability [1]: decomposes easily under ambient conditions; also recorded: decomposes, even at low temperatures

CCc1ccc(CCOc2ccc(CC3SC(=O)NC3=O)cc2)nc1 (centres unmarked) [PGZ, pioglitazone, reference compound]
HOMA-IR ([2]; After 5 weeks of treatment): 2.32 ± 0.407 | R-QUICKI ([2]; After 5 weeks of treatment): 0.339 ± 0.008 | HbA1c ([2]; After 5 weeks of treatment, mean ± SEM, n = 4): 9.633 ± 1.601 | HOMA-IR ([2]; Final (end of 5 weeks treatment), PGZ 30 mg/Kg, 8d 32 mg/Kg, mean ± SEM, n = 4): 2.32 ± 0.41 | HOMA-IR ([2]; Initial (beginning of treatment), PGZ 30 mg/Kg, 8d 32 mg/Kg, mean ± SEM, n = 4): 2.59 ± 0.34 | HOMA-IR [2, 7]: 2.59 ± 0.337 | R-QUICKI [2, 7]: 0.333 ± 0.007 | HbA1c ([2]; after the induction of T2D, before treatment, mean ± SEM, n = 4): 8.433 ± 0.088 | adipogenic effect at necropsy ([2]; after treatment): clear adipogenic effect | polydipsia (water consumption) ([2]; daily oral treatment): decreasing the polydipsia after the first week of treatment | redistribution of adipose tissue from visceral to subcutaneous fat ([2]; necropsy): marked | A/G ([3]; Final): 1.43 ± 0.05 | AMY ([3]; Final): 405.75 ± 25.93 | AST/ALT ([3]; Final): 4.61 ± 0.51 | BUN/CRE ([3]; Final): 28.00 ± 3.24 | GGT ([3]; Final): 1.25 ± 0.19 | GLU ([3]; Final): 275.25 ± 84.75 | T-CHOL ([3]; Final): 98.00 ± 5.57 | TBA ([3]; Final): 72.60 ± 16.24 | TG ([3]; Final): 151.00 ± 10.42 | ALP ([3]; Final): 274.00 ± 58.19 | ALT ([3]; Final): 75.75 ± 6.73 | AST ([3]; Final): 343.50 ± 39.59 | CK ([3]; Final): > 3000 | ALB ([3]; Final): 3.78 ± 0.12 | GLO ([3]; Final): 2.65 ± 0.12 | BUN ([3]; Final): 14.81 ± 1.23 | CRE ([3]; Final): 0.54 ± 0.04 | Ca ([3]; Final): 9.18 ± 0.08 | Mg ([3]; Final): 2.40 ± 0.05 | P ([3]; Final): 8.30 ± 0.47 | TBIL ([3]; Final): 0.16 ± 0.02 | UREA ([3]; Final): 31.58 ± 2.78 | tCO2 ([3]; Final): 18.00 ± 0.41 | TP ([3]; Final): 6.43 ± 0.22 | A/G ([3]; Initial): 1.45 ± 0.03 | AMY ([3]; Initial): 369.75 ± 26.22 | AST/ALT ([3]; Initial): 1.99 ± 0.38 | BUN/CRE ([3]; Initial): 25.75 ± 2.59 | GGT ([3]; Initial): 0.80 ± 0.25 | GLU ([3]; Initial): 203.25 ± 19.84 | T-CHOL ([3]; Initial): 81.00 ± 1.96 | TBA ([3]; Initial): 76.43 ± 13.25 | TG ([3]; Initial): 108.13 ± 6.46 | ALP ([3]; Initial): 271.25 ± 44.69 | ALT ([3]; Initial): 63.5 ± 6.5 | AST ([3]; Initial): 119.25 ± 7.96 | CK ([3]; Initial): 509 ± 118.04 | ALB ([3]; Initial): 3.85 ± 0.06 | GLO ([3]; Initial): 2.65 ± 0.10 | BUN ([3]; Initial): 14.22 ± 1.51 | CRE ([3]; Initial): 0.56 ± 0.03 | Ca ([3]; Initial): 9.30 ± 0.20 | Mg ([3]; Initial): 2.09 ± 0.03 | P ([3]; Initial): 7.55 ± 0.87 | TBIL ([3]; Initial): 0.2 ± 0.02 | UREA ([3]; Initial): 30.40 ± 3.28 | tCO2 ([3]; Initial): 13.75 ± 0.85 | TP ([3]; Initial): 6.5 ± 0.15 | effect on total antioxidant capacity (TAC) [4]: partial recovery of TAC | TAC Equivalent to Trolox [4, 8]: 97.75 ± 1.29 µM | TAC Equivalent to Trolox [4, 9]: 97.75 ± 1.29 µM | effect on IL-6 and TNF-α levels ([5]; IL-6 and TNF-α together): significantly reduced IL-6 and TNF-α levels | IL-6 [5, 8]: 234.25 ± 52.05 pg/mL | IL-6 [5, 9]: 234.25 ± 52.05 pg/mL | TNF-α [6, 8]: 3000.53 ± 519.24 pg/mL | TNF-α [6, 9]: 3000.53 ± 519.24 pg/mL
